From patent publication US11180504B2 (ORCHID PHARMA LTD., priority 2016, dated 2021)
Converted amounts (≈) assume the structure as drawn. Read-outs that look alike come from different tables or passages of the source.

Legend:
[1] = tested on: methicillin-sensitive Staphylococcus aureus; experiment: MIC by broth micro-dilution (CLSI), methicillin-sensitive S. aureus; assay type: cell-based; conditions: MSSA S. aureus ATCC29213
[2] = tested on: carbapenem sensitive Escherichia coli; experiment: MIC by broth micro-dilution (CLSI), carbapenem sensitive E. coli; assay type: cell-based
[3] = tested on: carbapenemase producing K. pneumoniae; experiment: MIC by broth micro-dilution (CLSI), carbapenemase producing K. pneumoniae; assay type: cell-based, Klebsiella pneumoniae
[4] = tested on: carbapenem sensitive Pseudomonas aeruginosa; experiment: MIC by broth micro-dilution (CLSI), carbapenem sensitive P. aeruginosa; assay type: cell-based
[5] = Staphylococcus aureus, ATCC 29213 / MSSA, read-out: MIC
[6] = Escherichia coli, ATCC25922, ESBL −ve E. coli ATCC25922, read-out: MIC
[7] = Klebsiella pneumoniae, ATCCBAA1705, KPC-2 K. pneumoniae ATCC BAA-1705, read-out: MIC
[8] = Pseudomonas aeruginosa, ATCC27853, Meropenem susceptible P. aeruginosa ATCC27853, read-out: MIC
[9] = KPC-2 K. pneumoniae ATCC BAA-1705
[10] = Meropenem susceptible P. aeruginosa ATCC27853

Compound	MIC [1, 5] [µg/mL]	MIC [2, 6] [µg/mL]	MIC [3, 7] [µg/mL]	MIC [4, 8] [µg/mL]	MIC [1] [µg/mL]	MIC ([2]; ESBL −ve E. coli ATCC25922) [µg/mL]	MIC [3, 9] [µg/mL]	MIC [4, 10] [µg/mL]	MIC ([1]; Staphylococcus aureus, ATCC29213|MSSA, read-out: MIC) [µg/mL]
C[C@@H](NC(=O)Cn1cnnn1)[C@H]1C(=O)N2C(C(=O)O)=C(SCCNC(=N)N)[C@H](C)[C@H]12 [Example 579, (4R,5S,6R)-6-((R)-1-(2-(1H-tetrazol-1-yl)acetamido)ethyl)-3-(2-guanidinoethylthio)-4-methyl-7-oxo-1-azabicyclo[3.2.0]hept-2-ene-carboxylic acid]	4 (≈ 9.14 µM)	0.25 (≈ 0.571 µM)	1 (≈ 2.29 µM)	16 (≈ 36.6 µM)	–	–	–	–	–
C[C@@H](NC(=O)Cn1cnnn1)[C@H]1C(=O)N2C(C(=O)O)=C(S[C@@H]3CN[C@H](C(=O)N4C[C@@H]5NC(=N)N[C@@H]5C4)C3)[C@H](C)[C@H]12 [Example 580, (4R,5S,6R)-6-((R)-1-(2-(1H-tetrazol-1-yl)acetamido)ethyl)-3-((3S,5S)-5-((3aR,6aS)-2-iminooctahydropyrrolo[3,4-d]imidazole-5-carbonyl)pyrrolidin-3-ylthio)-methyl-7-oxo-1-azabicyclo[3.2.0]hept-2-ene-2-carboxylic acid]	2 (≈ 3.49 µM)	0.25 (≈ 0.436 µM)	1 (≈ 1.74 µM)	0.5 (≈ 0.872 µM)	–	–	–	–	–
C[C@@H](NC(=O)Cn1cnnn1)[C@H]1C(=O)N2C(C(=O)O)=C(S[C@@H]3CN[C@H](C(=O)N4CC5CC(NC(=N)N)CC5C4)C3)[C@H](C)[C@H]12 (stereo partly drawn) [Example 581, (4R,5S,6R)-6-((R)-1-(2-(1H-tetrazol-yl)acetamido)ethyl)-3-((3S,5S)-5-(5-guanidinooctahydroyclopenta[c]pyrrole-2-carbonyl)pyrrolidin-3-ylthio)-4-methyl-7-oxo-1-azabicyclo[3.2.0]hept-2-ene-2-carboxylic acid]	8 (≈ 13 µM)	0.5 (≈ 0.812 µM)	8 (≈ 13 µM)	64 (≈ 104 µM)	–	–	–	–	–
C[C@@H](NC(=O)Cn1cnnn1)[C@H]1C(=O)N2C(C(=O)O)=C(S[C@@H]3CN[C@H](C(=O)N4CC[C@H](NC(=N)N)C4)C3)[C@H](C)[C@H]12 [Example 582, (4R,5S,6R)-6-((R)-1-(2-(1H-tetrazol-1-yl)acetamido)-ethyl)-3-((3S,5S)-5-((S)-3-guanidino-pyrrolidine-1-carbonyl)pyrrolidin-3-ylthio)-4-methyl-7-oxo-1-azabicyclo[3.2.0]hept-ene-2-carboxylic acid]	2 (≈ 3.47 µM)	0.25 (≈ 0.434 µM)	2 (≈ 3.47 µM)	0.5 (≈ 0.869 µM)	–	–	–	–	–
C[C@@H](NC(=O)Cn1cnnn1)[C@H]1C(=O)N2C(C(=O)O)=C(S[C@@H]3CN[C@H](C(=O)N4C[C@@H](CO)[C@H](NC(=N)N)C4)C3)[C@H](C)[C@H]12 [Example 583, (4R,5S,6R)-6-((R)-1-(2-(1H-tetrazol-1-yl)acetamido)ethyl)-3-((3S,5S)-5-((3S,4R)-3-guanidino-4-(hydroxymethyl)pyrrolidine-1-carbonyl)pyrrolidin-3-ylthio)-4-methyl-7-oxo-1-azabicyclo[3.2.0]hept-2-ene-2-carboxylic acid]	1 (≈ 1.65 µM)	0.03 (≈ 0.0495 µM)	1 (≈ 1.65 µM)	0.5 (≈ 0.826 µM)	–	–	–	–	–
C[C@@H](NC(=O)Cn1cnnn1)[C@H]1C(=O)N2C(C(=O)O)=C(S[C@@H]3CN[C@H](C(=O)N4C[C@@H](CO)[C@H](N)C4)C3)[C@H](C)[C@H]12 [Example 584, (4R,5S,6R)-6-((R)-1-(2-(1H-tetrazol-1-yl)acetamido)ethyl)-3-((3S,5S)-5-((3S,4R)-3-amino-4-(hydroxymethyl)pyrrolidine-1-carbonyl)pyrrolidin-3-ylthio)-4-methyl-7-oxo-1-azabicyclo[3.2.0]hept-2-ene-2-carboxylic acid]	2 (≈ 3.55 µM)	0.25 (≈ 0.444 µM)	1 (≈ 1.77 µM)	1 (≈ 1.77 µM)	–	–	–	–	–
C[C@@H](NC(=O)Cn1cnnn1)[C@H]1C(=O)N2C(C(=O)O)=C(S[C@@H]3CN[C@H](C(=O)N4CC5C[C@@H](NC(=N)N)C[C@]5(CO)C4)C3)[C@H](C)[C@H]12 (stereo partly drawn) [Example 585, (4R,5S,6R)-6-((R)-1-(2-(1H-tetrazol-1-yl)acetamido)ethyl)-3-((3S,5S)-5-((3aR,5R)-5-guanidino-3a-(hydroxymethyl)octahydrocyclopenta[c]pyrrole-2-carbonyl)pyrrolidin-3-ylthio)-4-methyl-7-oxo-1-azabicyclo[3.2.0]hept-2-ene-2-carboxylic acid]	2 (≈ 3.1 µM)	0.125 (≈ 0.194 µM)	1 (≈ 1.55 µM)	4 (≈ 6.19 µM)	–	–	–	–	–
CNCC(=O)N[C@H](C)[C@H]1C(=O)N2C(C(=O)O)=C(S[C@@H]3CN[C@H](C(=O)N4C[C@@H](O)[C@H](NC(=N)N)C4)C3)[C@H](C)[C@H]12 [Example 588, (4R,5S,6R)-3-((3S,5S)-5-((3R,4R)-3-guanidino-4-hydroxypyrrolidine-1-carbonyl)pyrrolidin-3-ylthio)-4-methyl-6-((R)-1-(2-(methylamino)acetamido)ethyl)-7-oxo-1-azabicyclo[3.2.0]hept-2-ene-2-carboxylic acid]	32 (≈ 57.9 µM)	4 (≈ 7.24 µM)	4 (≈ 7.24 µM)	4 (≈ 7.24 µM)	–	–	–	–	–
C[C@@H](NC(=O)Cn1cnnn1)[C@H]1C(=O)N2C(C(=O)O)=C(S[C@@H]3CN[C@H](CNC(=N)N)C3)[C@H](C)[C@H]12 [Example 589, (4R,5S,6R)-6-((R)-1-(2-(1H-tetrazol-1-yl)acetamido)ethyl)-3-((3S,5S)-5-(guanidinomethyl)pyrrolidin-3-ylthio)-4-methyl-7-oxo-1-azabicyclo[3.2.0]hept-2-ene-2-carboxylic acid]	4 (≈ 8.12 µM)	0.5 (≈ 1.02 µM)	2 (≈ 4.06 µM)	16 (≈ 32.5 µM)	–	–	–	–	–
C[C@@H](NC(=O)Cn1cnnn1)[C@H]1C(=O)N2C(C(=O)O)=C(S[C@@H]3CN[C@H](C(=O)N4CC5CNC5C4)C3)[C@H](C)[C@H]12 (stereo partly drawn) [Example 591, (4R,5S,6R)-6-((R)-1-(2-(1H-tetrazol-1-yl)acetamido)ethyl)-3-((3S,5S)-5-(3,6-diazabicyclo[3.2.0]heptane-3-carbonyl)pyrrolidin-3-ylthio)-4-methyl-7-oxo-1-azabicyclo[3.2.0]hept-2-ene-2-carboxylic acid]	–	–	–	–	2 (≈ 3.67 µM)	0.25 (≈ 0.458 µM)	1 (≈ 1.83 µM)	1 (≈ 1.83 µM)	–
C[C@@H](NC(=O)Cn1cnnn1)[C@H]1C(=O)N2C(C(=O)O)=C(S[C@@H]3CN[C@H](C(=O)N4C[C@H](CO)[C@@H](NC(=N)N)C4)C3)[C@H](C)[C@H]12 [Example 592, (4R,5S,6R)-6-((R)-1-(2-(1H-tetrazol-1-yl)acetamido)ethyl)-3-((3S,5S)-5-((3R,4S)-3-guanidino-4-diazabicyclo[3.2.0]heptane-3-(hydroxymethyl)pyrrolidine-1-carbonyl)pyrrolidin-3-ylthio)-4-methyl-7-oxo-1-azabicyclo[3.2.0]hept-2-ene-2-carboxylic acid]	2 (≈ 3.3 µM)	0.125 (≈ 0.206 µM)	0.5 (≈ 0.826 µM)	0.5 (≈ 0.826 µM)	–	–	–	–	–
C[C@@H](NC(=O)Cn1cnnn1)[C@H]1C(=O)N2C(C(=O)O)=C(Sc3cnn(C[C@@H]4CCNC4)c3)[C@H](C)[C@H]12 [Example 593, (4R,5S,6R)-6-((R)-1-(2-(1H-tetrazol-1-yl)acetamido)ethyl)-4-methyl-7-oxo-3-(1-((R)-pyrrolidin-3-ylmethyl)-1H-pyrazol-4-ylthio)-1-azabicyclo[3.2.0]hept-2-ene-2-carboxylic acid]	16 (≈ 31.9 µM)	1 (≈ 1.99 µM)	32 (≈ 63.8 µM)	128 (≈ 255 µM)	–	–	–	–	–
C[C@@H](NC(=O)Cn1cnnn1)[C@H]1C(=O)N2C(C(=O)[O-])=C(Sc3cnn(CC4CC[N+](C)(CCN)CC4)c3)[C@H](C)[C@H]12 (stereo partly drawn) [Example 594, (4R,5S,6R)-6-((R)-1-(2-(1H-tetrazol-1-yl)acetamido)ethyl)-3-(1-((1-(2-aminoethyl)-1-methylpiperidinium-4-yl)methyl)-1H-pyrazol-4-ylthio)-4-methyl-7-oxo-1-azabicyclo[3.2.0]hept-2-ene-2-carboxylate]	1 (≈ 1.75 µM)	32 (≈ 55.9 µM)	> 128	> 128	–	–	–	–	–
C[C@@H](NC(=O)Cn1cnnn1)[C@H]1C(=O)N2C(C(=O)[O-])=C(SCc3ccc(-c4cn(CCCN)[n+](C)c4)cc3)[C@H](C)[C@H]12 [Example 596, (4R,5S,6R)-6-((R)-1-(2-(1H-tetrazol-1-yl)acetamido)ethyl)-3-(4-(1-(3-aminopropyl)-2-methyl-1H-pyrazol-2-ium-4-yl)benzylthio)-4-methyl-7-oxo-1-azabicyclo[3.2.0]hept-2-ene-2-carboxylate]	2 (≈ 3.45 µM)	1 (≈ 1.73 µM)	16 (≈ 27.6 µM)	32 (≈ 55.2 µM)	–	–	–	–	–
C[C@@H](NC(=O)Cn1cnnn1)[C@H]1C(=O)N2C(C(=O)[O-])=C(Sc3cn(C[C@@H]4CCNC4)[n+](C)c3)[C@H](C)[C@H]12 [Example 597, (4R,5S,6R)-6-((R)-1-(2-(1H-tetrazol-1-yl)acetamido)ethyl)-4-methyl-3-(2-methyl-1-((R)-pyrrolidin-3-ylmethyl)-1H-pyrazol-2-ium-4-ylthio)-7-oxo-1-azabicyclo[3.2.0]hept-2-ene-2-carboxylate]	4 (≈ 7.76 µM)	4 (≈ 7.76 µM)	32 (≈ 62.1 µM)	32 (≈ 62.1 µM)	–	–	–	–	–
C[C@@H](NC(=O)Cn1cnnn1)[C@H]1C(=O)N2C(C(=O)[O-])=C(S[C@@H]3CN[C@H](C(=O)N4CCC5C[N+](C)(C)CCC54)C3)[C@H](C)[C@H]12 (some centres unmarked) [Example 598]	–	1 (≈ 1.66 µM)	2 (≈ 3.32 µM)	–	–	–	–	16 (≈ 26.6 µM)	8 (≈ 13.3 µM)
C[C@@H](NC(=O)Cn1cnnn1)[C@H]1C(=O)N2C(C(=O)[O-])=C(S[C@@H]3CN[C@H](C(=O)N4CCC5C[N+](C)(C)CCC54)C3)[C@H](C)[C@H]12 (some centres unmarked) [Example 599]	–	–	–	–	4 (≈ 6.65 µM)	1 (≈ 1.66 µM)	2 (≈ 3.32 µM)	4 (≈ 6.65 µM)	–
